Measured values reported in the supplement of paper PMC8960247.
± gives the standard error.

Key:
621-102 (TSC2-deficient) [1] = experiment: relative viability vs DMSO (fraction); higher = less cytotoxic; details: serum: 0.1% FBS, 72 h
UMB1949 (TSC2-deficient) = experiment: as above; details: serum: 0.1% FBS, 72 h;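 also: renal angiomyolipoma cell lines screened in 384-well plates, viability normalized per plate to DMSO-treated cells, each plate carrying 50 nM rapamycin and 1 µM staurosporine controls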
621-102 (TSC2-deficient) [2] = experiment: relative viability vs DMSO; higher = less cytotoxic; details: serum: 10% FBS, 72 h
621-103 (TSC2-rescued) = experiment: as above; details: serum: 10% FBS, 72 h

Structure (SMILES)	relative viability (621-102 (TSC2-deficient) [1]; 0.0128 nM)	relative viability (621-102 (TSC2-deficient) [1]; 0.064 nM)	relative viability (621-102 (TSC2-deficient) [1]; 0.32 nM)	relative viability (621-102 (TSC2-deficient) [1]; 1.6 nM)	relative viability (621-102 (TSC2-deficient) [1]; 8 nM)	relative viability (621-102 (TSC2-deficient) [1]; 40 nM)	relative viability (621-102 (TSC2-deficient) [1]; 200 nM)	relative viability (621-102 (TSC2-deficient) [1]; 1000 nM)	relative viability (621-102 (TSC2-deficient) [1]; 5000 nM)	relative viability (UMB1949 (TSC2-deficient); 0.0128 nM)	relative viability (UMB1949 (TSC2-deficient); 0.064 nM)	relative viability (UMB1949 (TSC2-deficient); 0.32 nM)	relative viability (UMB1949 (TSC2-deficient); 1.6 nM)	relative viability (UMB1949 (TSC2-deficient); 8 nM)	relative viability (UMB1949 (TSC2-deficient); 40 nM)	relative viability (UMB1949 (TSC2-deficient); 200 nM)	relative viability (UMB1949 (TSC2-deficient); 1000 nM)	relative viability (UMB1949 (TSC2-deficient); 5000 nM)	relative viability (621-102 (TSC2-deficient) [2]; 0.0001 µM) [%]	relative viability (621-102 (TSC2-deficient) [2]; 0.001 µM) [%]	relative viability (621-102 (TSC2-deficient) [2]; 0.01 µM) [%]	relative viability (621-102 (TSC2-deficient) [2]; 0.1 µM) [%]	relative viability (621-102 (TSC2-deficient) [2]; 1 µM) [%]	relative viability (621-102 (TSC2-deficient) [2]; 10 µM) [%]	relative viability (621-103 (TSC2-rescued); 0.0001 µM) [%]	relative viability (621-103 (TSC2-rescued); 0.001 µM) [%]	relative viability (621-103 (TSC2-rescued); 0.01 µM) [%]	relative viability (621-103 (TSC2-rescued); 0.1 µM) [%]	relative viability (621-103 (TSC2-rescued); 1 µM) [%]	relative viability (621-103 (TSC2-rescued); 10 µM) [%]
CC(C)(C)c1cnc(CSc2cnc(NC(=O)C3CCNCC3)s2)o1	1.06	1.14	1.02	1.07	0.654	0.112	0.00431	0.00292	0.00164	1.14	1.05	1.1	1.12	1.07	0.771	0.00698	0.00188	0.00107	102.3 ± 0.73	107.6 ± 0.94	102 ± 3.9	51.1 ± 3.1	15.7 ± 0.57	8.84 ± 0.46	99.3 ± 1.4	96.57 ± 0.27	96.563 ± 0.042	49.5 ± 4.3	21.27 ± 0.21	16.3 ± 1.4
CCOc1ccn(-c2ccc(F)cc2)c(=O)c1C(=O)Nc1ccc(Oc2ccnc(N)c2Cl)c(F)c1	1.04	0.924	0.972	0.852	0.854	0.991	0.877	0.756	0.0351	0.977	1.06	0.983	1.01	0.867	1.03	1.02	0.984	0.0304	106 ± 3.3	101.7 ± 0.87	103 ± 2.8	104.97 ± 0.1	100 ± 1.6	97.17 ± 0.96	88.1 ± 3.7	93.98 ± 0.29	98.93 ± 0.32	99.4 ± 1.1	97.6 ± 3.9	90.8 ± 4.7
CCc1cccc(CC)c1NC(=O)N1Cc2[nH]nc(NC(=O)c3ccc(N4CCN(C)CC4)cc3)c2C1	1.02	0.947	1.01	0.767	0.524	0.292	0.0956	0.0612	0.00895	0.986	1.13	1.17	0.98	0.853	0.0445	0.00761	0.00148	0.000776	100 ± 7.8	86.5 ± 5.1	101 ± 3.2	91.7 ± 2.3	60.9 ± 2	30.4 ± 1.4	103 ± 1.6	101.9 ± 0.41	104.5 ± 0.47	103 ± 1.4	64.8 ± 1.1	17.8 ± 0.74
CO[C@@H](C(=O)N1Cc2[nH]nc(NC(=O)c3ccc(N4CCN(C)CC4)cc3)c2C1)c1ccccc1	0.925	0.972	0.92	0.989	0.816	0.325	0.0618	0.0757	0.00444	0.936	0.879	0.868	1.02	0.261	0.037	0.0271	0.00276	0.000648	105 ± 3.9	101 ± 2.8	98 ± 8.5	91.8 ± 2.3	64.1 ± 0.79	31.6 ± 0.91	85.7 ± 2.3	90.8 ± 0.93	92.6 ± 5	89.5 ± 2.8	62.3 ± 1.8	11.5 ± 0.39
Cc1cc(Nc2cc(CN3CCOCC3)c3nc(C)c(Cc4ccc(Cl)cc4F)n3n2)n[nH]1	1.15	1.05	1.08	0.98	1.05	0.925	0.787	0.014	0.000958	1.1	1	1.03	0.938	1	0.885	0.753	0.0134	0.000916	109 ± 2.8	108 ± 1.6	97.1 ± 3.9	101 ± 1.6	95.8 ± 1.3	26.9 ± 0.53	106.8 ± 0.47	96.94 ± 0.68	90.05 ± 0.81	98.4 ± 5.3	87.2 ± 2.1	8.52 ± 0.44
Cc1cnc(NC(=O)Nc2cc(Br)c(C)cc2OC[C@@H]2CNCCO2)cn1	0.474	0.234	0.185	0.103	0.0749	0.0522	0.0206	0.0139	0.0111	0.911	0.655	0.375	0.158	0.27	0.00749	0.0015	0.00258	0.00665	72.1 ± 3.7	87.9 ± 6.2	95 ± 2.5	75.8 ± 2.3	29.1 ± 0.86	26.8 ± 0.86	109.5 ± 0.45	103.7 ± 0.67	102.8 ± 0.59	109 ± 4.1	84.09 ± 0.55	33.7 ± 0.83
Cn1cc(CNCC2CCN(c3ncc(C(=O)NO)cn3)CC2)c2ccccc21	1.02	0.835	0.708	0.585	0.288	0.0238	0.00256	0.000673	0.000759	1.08	0.949	0.9	0.687	0.00555	0.00221	0.0013	0.000408	0.000355	95.9 ± 2.5	86.5 ± 1.7	59.3 ± 0.89	36.84 ± 0.15	25.2 ± 0.97	18.08 ± 0.036	91.4 ± 0.56	78.47 ± 0.52	44.98 ± 0.16	3.52 ± 0.045	2.06 ± 0.065	1.27 ± 0.15
c1ccc2c(-c3cnn4cc(-c5ccc(N6CCNCC6)cc5)cnc34)ccnc2c1	0.953	0.778	0.956	0.795	0.719	0.83	0.534	0.0661	0.0132	1.1	1.14	1.15	1.08	1.07	1.1	0.943	0.00737	0.0056	92.1 ± 4.3	95.1 ± 3.5	92.2 ± 3.1	91.6 ± 2.6	71.9 ± 2.9	0.885 ± 0.12	90.6 ± 2.2	104 ± 0.35	93.2 ± 1.9	88 ± 1.8	62.5 ± 2.2	0.919 ± 0.12
CN(C)CC[C@H](CSc1ccccc1)Nc1ccc(S(=O)(=O)NC(=O)c2ccc(N3CCN(Cc4ccccc4-c4ccc(Cl)cc4)CC3)cc2)cc1[N+](=O)[O-] [ABT-737]	0.888	0.796	0.677	0.564	0.491	0.175	0.00664	0.00508	0.00348	1.02	0.975	0.941	0.965	0.92	0.869	0.803	0.197	0.00643	122.1 ± 0.59	118 ± 1.4	113 ± 1.9	107 ± 3.3	101 ± 3.6	43.2 ± 2	101 ± 1.5	99.05 ± 0.48	97.82 ± 0.7	98.61 ± 0.42	91.97 ± 0.57	43.5 ± 2.2
